Results: patent US8835440B2, “Cyclic pyrimidin-4-carboxamides as CCR2 receptor antagonists for treatment of inflammation, asthma and COPD” (Boehringer Ingelheim International GmbH, priority 2008, dated 2014)

Biological target: T1, CCR2 (Homo sapiens, UniProt P41597)
T1 construct: Membranes were prepared from THP-1 cells; endogenous in cells; host or cells: THP-1 cells (membrane preparation)
T1 sequence (P41597 1-360 isoform P41597-2): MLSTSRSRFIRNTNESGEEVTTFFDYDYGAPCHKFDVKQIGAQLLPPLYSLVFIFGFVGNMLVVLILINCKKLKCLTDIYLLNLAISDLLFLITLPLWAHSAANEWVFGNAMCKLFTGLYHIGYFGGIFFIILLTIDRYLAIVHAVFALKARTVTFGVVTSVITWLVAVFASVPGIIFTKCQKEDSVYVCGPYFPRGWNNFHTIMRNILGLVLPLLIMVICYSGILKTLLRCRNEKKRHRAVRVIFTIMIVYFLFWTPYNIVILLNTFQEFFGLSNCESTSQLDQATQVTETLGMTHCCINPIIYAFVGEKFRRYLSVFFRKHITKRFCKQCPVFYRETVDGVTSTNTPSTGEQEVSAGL
Experiment: CCR2 receptor membrane binding assay ([125I]MCP-1, THP-1 cell membranes, SPA beads)
Conditions: for remaining activity at 10 µM: @ 10 μM test compound, THP-1 membranes, read-out: CCR2 % ctrl @ 10 μM; for Ki: dissociation constant hKi, [125I]MCP-1 binding to THP-1 membranes
How it was run: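 Human THP-1 monocytic cell membranes, pre-coupled to WGA-PVT SPA beads, were incubated with compound and [125I]MCP-1 (ca. 25000 cpm) in 25 mM HEPES pH 7.2, 5 mM MgCl2, 0.5 mM CaCl2, 0.2% BSA, at 1% DMSO final. Bound radioactivity was counted after 8 h, and Ki was obtained by iterative mass-action fitting.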

Row | Structure (SMILES) | remaining activity at 10 µM | Ki
1 | Cc1c(NCc2ccc(Cl)c(Cl)c2)ncnc1C(=O)N1CCC(N2CCCC(F)C2)CC1 (stereo not shown) [Example 233] | 8% | 194 nM
2 | Cc1c(NCc2cccc(-c3ccccc3)c2)ncnc1C(=O)N1CCC(N2CCOC(C)C2)CC1 (stereo not shown) [Example 234] | 19% | 401 nM
3 | Cc1c(NCc2ccc(Cl)c(Cl)c2)ncnc1C(=O)N1CCC(N2CCCCCC2)CC1 [Example 235] | 26% | 460 nM
4 | Cc1c(NCc2cccc(-c3ccccc3)c2)ncnc1C(=O)N1CCC(N2CCC(N(C)C)CC2)CC1 [Example 236] | 14% | 175 nM
5 | Cc1c(NCc2ccc(Cl)c(Cl)c2)ncnc1C(=O)N1CCC(N2CCC(O)C2)CC1 (stereo not shown) [Example 238] | 14% | 239 nM
6 | Cc1c(NCc2cccc(-c3ccccc3)c2)ncnc1C(=O)N1CCC(N2CCC(O)C2)CC1 (stereo not shown) [Example 239] | 33% | 2320 nM
7 | Cc1c(NCCc2ccc(Cl)c(Cl)c2)ncnc1C(=O)N1CCC(N2CCC(O)C2)CC1 (stereo not shown) [Example 241] | 21% | 522 nM
8 | Cc1c(NCc2ccc(Cl)c(Cl)c2)ncnc1C(=O)N1CCC(N2CCCOCC2)CC1 [Example 242] | 21% | 516 nM
9 | Cc1c(NCc2cccc(-c3ccccc3)c2)ncnc1C(=O)N1CCC(N2CCCOCC2)CC1 [Example 243] | 40% | 1620 nM
10 | Cc1c(NCc2ccc(Cl)c(Cl)c2)ncnc1C(=O)N1CCC(N2CCC(F)(F)CC2)CC1 [Example 244] | 24% | 366 nM
11 | Cc1c(NCc2ccc(Cl)c(Cl)c2)ncnc1C(=O)N1CCC(N2CCCC(O)CC2)CC1 (stereo not shown) [Example 245] | 15% | 555 nM
12 | Cc1c(NCCc2ccc(Cl)c(Cl)c2)ncnc1C(=O)N1CCC(N2CC[C@@H](O)[C@@H](O)C2)CC1 [Example 246] | 2% | 306 nM
13 | CNC(=O)C1CCN(C2CCN(C(=O)c3nc(C)nc(NCc4ccc(C(C)(C)C)cc4)c3C)CC2)CC1 [Example 248] | 17% | 
14 | CN(C1CCN(C2CCN(C(=O)c3ncnc(NCc4ccc(C(C)(C)C)cc4)c3C#N)CC2)CC1)S(C)(=O)=O [Example 249] | 36% | 3250 nM
15 | Cc1c(NCc2ccc(C(C)(C)C)cc2)ncnc1C(=O)N1CCC(N2CCCCC2)C1 (stereo not shown) [Example 250] | 32% | 1260 nM
16 | Cc1c(NCc2ccc(C(C)(C)C)cc2)ncnc1C(=O)N1CCC(N2CCCC2)C1 (stereo not shown) [Example 251] | 75% | 439 nM
17 | Cc1c(NCCc2ccc(Cl)c(Cl)c2)ncnc1C(=O)N1CCC(N2CCCC2)CC1 [Example 253] | 17% | 350 nM
18 | Cc1c(NCc2ccc(Cl)c(Cl)c2)ncnc1C(=O)N1CCC(N2CC[C@H](C(N)=O)C2)CC1 [Example 256] | 25% | 438 nM
19 | CNC(=O)[C@H]1CCN(C2CCN(C(=O)c3ncnc(NCc4ccc(Cl)c(Cl)c4)c3C)CC2)C1 [Example 257] | 14% | 186 nM
20 | Cc1c(NCc2ccc(Cl)c(Cl)c2)ncnc1C(=O)N1CCC(N2CC[C@@H](NS(C)(=O)=O)C2)CC1 [Example 259] | 16% | 277 nM
21 | CNC(=O)[C@@H]1CCN(C2CCN(C(=O)c3ncnc(NCc4ccc(Cl)c(Cl)c4)c3C)CC2)C1 [Example 260] | 20% | 493 nM
22 | CNS(=O)(=O)C1CCN(C2CCN(C(=O)c3nc(C)nc(NCc4ccc(C(C)(C)C)cc4)c3C)CC2)CC1 [Example 262] | 13% | 224 nM
23 | COC1CN(C(=O)c2ncnc(NCc3ccc(C(C)(C)C)cc3)c2C)CCC1N1CCC(N(C)S(C)(=O)=O)CC1 (stereo not shown) [Example 263] | 27% | 1970 nM
24 | Cc1c(NCc2ccc(C(C)(C)C)cc2)ncnc1C(=O)N1CCC(N2CC[C@@H](C(N)=O)C2)CC1 [Example 265] | 23% | 462 nM
25 | Cc1nc(NCc2ccc(C(C)(C)C)cc2)c(C)c(C(=O)N2CCC(N3CC[C@@H](C(N)=O)C3)CC2)n1 [Example 267] | 20% | 487 nM
26 | Cc1c(/C=C/c2ccc(C(C)(C)C)cc2)ncnc1C(=O)N1CCC(N2CCOCC2)CC1 [Example 271] | 15% | 1610 nM
27 | Cc1c(C(=O)N2CCC(N3CCC(NS(C)(=O)=O)CC3)CC2)ccnc1NCc1ccc(Cl)c(Cl)c1 [Example 274] | 48% | 4420 nM
28 | Cc1c(C(=O)N2CCC(N3CCC(O)CC3)CC2)ccnc1NCc1ccc(Cl)c(Cl)c1 [Example 275] | 19% | 593 nM
29 | Cc1c(NCc2ccc(C(C)(C)C)cc2)ncnc1C(=O)N1CCC(N(C)C2CC(C)OC(C)C2)CC1 (stereo not shown) [Example 275c] | 38% | 2930 nM
30 | Cc1c(NCc2ccc(C(C)(C)C)cc2)ncnc1C(=O)N1CCC(N(C)C2CCC(F)(F)CC2)CC1 [Example 275d] | 10% | 318 nM

Next, values leading:

Row | remaining activity at 10 µM | Ki | Structure (SMILES)
31 | 9% | 133 nM | Cc1c(NCCc2ccc(Cl)c(Cl)c2)ncnc1C(=O)N1CCC(N2CCOC(C)C2)CC1 (stereo not shown) [Example 237]
32 | 7% | 104 nM | Cc1c(NCCc2ccc(Cl)c(Cl)c2)ncnc1C(=O)N1CCC(N2CCOC(c3ccccc3)C2)CC1 (stereo not shown) [Example 240]
33 | 6% | 149 nM | Cc1c(NCCc2ccc(Cl)c(Cl)c2)ncnc1C(=O)N1CCC(N2CCCC(O)CC2)CC1 (stereo not shown) [Example 247]
34 | 6% | 38 nM | Cc1c(NCCc2ccc(Cl)c(Cl)c2)ncnc1C(=O)N1CCC(C(N)=O)(N2CCCCC2)CC1 [Example 252]
35 | 11% | 101 nM | CNS(=O)(=O)C1CCN(C2CCN(C(=O)c3ncnc(NCc4ccc(Cl)c(Cl)c4)c3C)CC2)CC1 [Example 254]
36 | 5% | 33 nM | Cc1c(NCc2ccc(Cl)c(Cl)c2)ncnc1C(=O)N1CCC(N2CCC(N(C)S(C)(=O)=O)CC2)CC1 [Example 255]
37 | 4% | 64 nM | Cc1c(NCc2ccc(Cl)c(Cl)c2)ncnc1C(=O)N1CCC(N2CC[C@H](NS(C)(=O)=O)C2)CC1 [Example 258]
38 | 8% | 120 nM | CNC(=O)C1CCN(C2CCN(C(=O)c3ncnc(NCc4ccc(C(C)(C)C)cc4)c3C)CC2)CC1 [Example 261]
39 | 3% | 41 nM | CCS(=O)(=O)NC1CCN(C2CCN(C(=O)c3ncnc(NCc4ccc(C(C)(C)C)cc4)c3C)CC2)CC1 [Example 264]
40 | 5% | 119 nM | Cc1c(Cc2ccc(C(C)(C)C)cc2)ncnc1C(=O)N1CCC(N2CCC(N(C)S(C)(=O)=O)CC2)CC1 [Example 268]
41 | 8% | 155 nM | Cc1c(CCc2ccc(C(C)(C)C)cc2)ncnc1C(=O)N1CCC(N2CCC(N(C)S(C)(=O)=O)CC2)CC1 [Example 272]
42 | 0% | 29 nM | Cc1c(NCc2ccc(C(C)(C)C)cc2)ncnc1C(=O)N1CCC(N(C)C2CCOCC2)CC1 [Example 275a]
43 | 3% | 26 nM | COC1COCCC1N(C)C1CCN(C(=O)c2ncnc(NCc3ccc(C(C)(C)C)cc3)c2C)CC1 (stereo not shown) [Example 275b]
